This passage reports IC50, Activity and Kd results from ChEMBL document CHEMBL3352528, “Ejection of structural zinc leads to inhibition of γ-butyrobetaine hydroxylase” (Bioorg Med Chem Lett, 2014).

Molecules are shown by their SMILES. pIC50, pKd: −log10 of the molar value. Calls of active or inactive are those of the source. No cut-off for these calls is given here. Bounds are passed on as bounds.

The target in experiment [1] is T1, Gamma-butyrobetaine dioxygenase (Homo sapiens, UniProt O75936).
T1 sequence (O75936 whole entry): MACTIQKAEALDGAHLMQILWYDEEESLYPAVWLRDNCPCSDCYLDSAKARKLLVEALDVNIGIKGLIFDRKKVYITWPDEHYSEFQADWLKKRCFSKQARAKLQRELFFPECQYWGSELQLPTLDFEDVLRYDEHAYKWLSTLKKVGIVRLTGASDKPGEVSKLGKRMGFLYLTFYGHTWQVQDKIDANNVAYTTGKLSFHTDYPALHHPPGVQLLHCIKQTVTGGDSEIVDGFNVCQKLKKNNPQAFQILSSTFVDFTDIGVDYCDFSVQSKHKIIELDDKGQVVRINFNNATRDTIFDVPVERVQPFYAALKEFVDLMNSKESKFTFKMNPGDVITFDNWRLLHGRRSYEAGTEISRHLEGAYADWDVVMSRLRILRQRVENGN
The experiment can be described thus: Inhibition of human BBOX pre-incubated for 1 min using TBS-protected fluorescein probe and Fe (II) (Fe(NH4)2(SO4)2 salt by fluoride release assay.

Experiment [2] has as its target T1, Gamma-butyrobetaine dioxygenase. The experiment can be described thus: Inhibition of human BBOX pre-incubated for 10 mins using TBS-protected fluorescein probe and Fe (II) (Fe(NH4)2(SO4)2 salt by fluoride release assay.
Experiment [3] has the same target. The experiment can be described thus: Inhibition of human BBOX pre-incubated for 15 mins using TBS-protected fluorescein probe and Fe (II) (Fe(NH4)2(SO4)2 salt by fluoride release assay.
The target is the same in experiment [4]. The experiment can be described thus: Inhibition of human BBOX pre-incubated for 20 mins using TBS-protected fluorescein probe and Fe (II) (Fe(NH4)2(SO4)2 salt by fluoride release assay.
For experiment [5] the target is unchanged. The experiment can be described thus: Inhibition of human BBOX pre-incubated for 25 mins using TBS-protected fluorescein probe and Fe (II) (Fe(NH4)2(SO4)2 salt by fluoride release assay.
Experiment [6] deals with T2, Gamma-butyrobetaine dioxygenase (Homo sapiens) (UniProt O75936).
T2 sequence (whole entry): T1 sequence (O75936 whole entry)
The experiment can be described thus: Binding affinity to human BBOX assessed as quenching of intrinsic tryptophan fluorescence at 50 to 200 uM in absence of Fe(II).

Experiment [7] deals with T1, Gamma-butyrobetaine dioxygenase. The experiment can be described thus: Binding affinity to human BBOX by tryptophan fluorescence quenching binding assay.
Experiment [8] shares this target. The experiment can be described thus: Binding affinity to human BBOX in presence of Fe(II) by tryptophan fluorescence quenching binding assay.
Experiment [9] has as its target T2, Gamma-butyrobetaine dioxygenase (Homo sapiens). The experiment can be described thus: Induction of Zn(II) from human BBOX assessed as zinc release by fluorescence based assay.

Regarding `c1ccc([Se][Se]c2ccccc2)cc1`, the pIC50 in experiment [1] is 4.26; in experiment [2] it was 4.33; in experiment [3], 4.31; in experiment [4] it was 4.38; in experiment [5], 4.41. The outcome in experiment [6] was Active. Moreover, the pKd in experiment [7] and in experiment [8] was below 3.70 each time.

Regarding `CN(C)C(=S)SSC(=S)N(C)C` [THIRAM], the pIC50 in experiment [1] is 4.25; in experiment [2] it was 4.47; in experiment [3], 4.85; in [4] it was 5.10; in experiment [5] it was 5.24. The outcome in [6] was Active. In addition, the negative-log Kd (pKd) was 4.23 in experiment [7] and 4.46 in experiment [8].

Take `Cl[Se]c1ccccc1`: the pIC50 was 5.29 in experiment [1]; 5.40 in experiment [2]; 5.49 in experiment [3]; 5.54 in [4]; 5.66 in experiment [5]. In [6], the outcome was Active. Moreover, the pKd was 5.03 in [7] and 5.12 in experiment [8].

As for `O=C(O)CNC(=O)c1nc(Cl)c2ccccc2c1O`, the figures for the pIC50 in [1], in experiment [2] and in experiment [4] were 4.44, 4.48 and 4.49, respectively. Also, the result in [9] and in experiment [6] was inactive. Further, the pKd in [7] is 3.91; in experiment [8] it was 4.89.

With `Br[Se]c1ccccc1`, the pIC50 is 5.15 in experiment [1]; 5.47 in [2]; 5.47 in [3]; 5.52 in [4]; 5.64 in experiment [5]. The result in experiment [6] was Active. Further, the results for the pKd in experiment [7] and in experiment [8] were 4.89 and 4.96, respectively.

For the compound `O=c1c2ccccc2[se]n1-c1ccccc1` [EBSELEN], the pIC50 in experiment [1] was 6.16; in [2], 6.15; in [3] it was 6.12; in [4], 6.08; in [5], 6.14. Besides, the result in experiment [6] was Active. Moreover, the figures for the pKd in experiment [7] and in experiment [8] were 5.44 and 5.34, respectively.

For `O[Se]c1ccccc1`, the pIC50 in experiment [1] was 4.27; in [2], 4.46; in experiment [3] it was 4.59; in [4] it was 4.72; in experiment [5] it was 4.77. In addition, the result in experiment [6] was Active. For the same compound, the pKd in experiment [7] and in experiment [8] was below 3.70 in each case.

As to `O=[Se](O)c1ccccc1`, the pIC50 in experiment [1] is 4.46; in experiment [2], 4.96; in experiment [3] it was 5.20; in experiment [4], 5.33; in experiment [5] it was 5.59. Moreover, the outcome in experiment [6] was Active. Further, the pKd in experiment [7] is 5.12; in experiment [8], 4.92.

What is called pIC50 is −log10 of the IC50, conventionally taken in molar units. The term pKd denotes the Kd on a negative log10 scale, so that one unit is a factor of ten.
